Measured values: the OPERA property sets (Mansouri et al. 2018)

Conditions: for log10 BCF / log10 biotransformation half-life (days): fish

SMILES | boiling point [°C] | melting point [°C] | also measured
Fc1c(F)c(F)c(C(F)(F)F)c(F)c1F | 104 | -65.6 | log10 vapour pressure (mmHg): 1.46
ClCC(Cl)(CCl)CCl | 211 |  | 
CC(Cc1ccc(O)c(O)c1)C(C)Cc1ccc(O)c(O)c1 (stereo unspecified) |  | 186 | 
C=CCCC(C)=O | 130 |  | log10 vapour pressure (mmHg): 1.02
COP(=S)(OC)Oc1ccc([N+](=O)[O-])c(Cl)c1 |  | 21 | log10 vapour pressure (mmHg): -5.4; log10 BCF: 1.55; log10 biotransformation half-life (days): -0.47
CC1=CC(=O)CCC1 | 201 | -21 | 
O=CC(Cl)Cl | 89.2 |  | log10 vapour pressure (mmHg): 1.74
O=c1c(O)c(-c2ccccc2)oc2ccccc12 |  | 172 | 
COc1c(O)c(Cl)c(Cl)c(Cl)c1Cl |  |  | log10 Koc (L/kg): 2.85; log10 vapour pressure (mmHg): -4.08; log10 BCF: 3.08
CCc1c(C(=O)O)c(=O)cnn1-c1ccc(Cl)cc1 |  | 269 | 
CCNc1nc(Cl)nc(N(CC)CC)n1 |  | 101 | log10 Koc (L/kg): 2.76
CC=C(CC)CC | 96 |  | log10 vapour pressure (mmHg): 1.72
CC(C)(C)c1cc([N+](=O)[O-])c(O)c([N+](=O)[O-])c1 |  | 95 | 
CN(C)C(=O)Nc1cccc(F)c1 |  |  | log10 Koc (L/kg): 1.73
Clc1ccc(C(Cl)Cl)cc1Cl | 257 |  | 
O=C(O)C(F)(F)C(F)(F)F | 96.5 |  | 
C=C(C)C(=C)C | 68.8 | -76 | log10 vapour pressure (mmHg): 2.18
COC(=O)C=C(Cl)C(=O)OC | 224 |  | 
CC(=O)NC(=O)COC(=O)c1ccccc1 |  | 104 | 
CCC1(c2ccccc2)C(=O)NC(=O)NC1=O |  | 174 | ready biodegradability: not readily biodegradable
CCCCC(CC)COC(=O)CCC (stereo unspecified) |  |  | ready biodegradability: readily biodegradable
CC(O)(CCO)CCO |  |  | ready biodegradability: not readily biodegradable
CCOC(=O)CC(=O)CCl |  | -8 | 
O=C1C(O)=C(O)C(=O)c2ccccc21 |  | 282 | 
CCCCCSCCCCC |  | -51.3 | 

SMILES | boiling point [°C] | melting point [°C] | also measured
CC(=O)c1ccccc1C(=O)O |  | 114 | 
C=CC(CC)CC | 84.1 | -128 | log10 vapour pressure (mmHg): 1.91
CCCCCCCCCCCCCCCC(=O)OC[C@@H](O)[C@H]1OC[C@H](O)[C@H]1O |  |  | ready biodegradability: readily biodegradable
CC(=O)OC(OC(C)=O)c1cccc([N+](=O)[O-])c1 |  | 72 | 
O=C1CSC(=O)N1 |  | 128 | 
Clc1cc(Cl)c(Cl)c(-c2cccc(Cl)c2Cl)c1 |  |  | log10 biotransformation half-life (days): 2.44
CCCCC(O)(CCCC)CCCC |  | 20 | 
C=CCCC(CC)CCCC (stereo unspecified) |  |  | log10 biotransformation half-life (days): 0.93
C=C[Si](C)(C)Cl | 83.5 |  | 
COC(=O)c1cccc(O)c1 | 281 | 73 | 
ClCCCCCl | 161 | -37.3 | log10 Henry constant (atm·m³/mol): -3.31; log10 vapour pressure (mmHg): 0.616; ready biodegradability: not readily biodegradable
Fc1c(Cl)c(F)c(Cl)c(F)c1Cl | 198 |  | 
C[C@]1(C(=O)O)CCC[C@]2(C)c3cc(O)ccc3CC[C@@H]12 |  | 194 | 
C1CCC(CCC2CCCCC2)CC1 | 272 | 11.5 | log10 biotransformation half-life (days): 0.13
CC(c1ccccc1)(c1ccccc1)c1ccccc1 |  | 95 | 
CCCCCCCCCCCCCC(=O)CC |  | 43 | 
CCNc1ccc2ccccc2c1 | 316 | 236 | 
CC(C)(C)c1cc(CO)cc(C(C)(C)C)c1O |  | 140 | ready biodegradability: not readily biodegradable
CNc1ccccc1C | 208 |  | ready biodegradability: not readily biodegradable; log10 BCF: 0.95; log10 biotransformation half-life (days): -0.74
CCC(C)n1c(=O)[nH]c(C)c(Br)c1=O (stereo unspecified) |  | 158 | log10 Koc (L/kg): 1.6; log10 vapour pressure (mmHg): -6.51; log10 BCF: 0.51; log10 biotransformation half-life (days): -1.33
CCCCNS(=O)(=O)c1ccccc1 | 314 |  | ready biodegradability: not readily biodegradable
O=C1CCC(c2ccccc2)CC1 |  | 79.5 | 
CCC(CC)=NO | 168 |  | 
Nc1ccc(C(=O)c2ccccc2)cc1 |  | 122 | 
CCC(C)(C)CCC(C)C | 153 |  | 

SMILES | boiling point [°C] | melting point [°C] | also measured
CCCCCCCCCCOCCCCCCCCCC |  |  | ready biodegradability: readily biodegradable
OCc1ccccc1O |  | 87 | ready biodegradability: not readily biodegradable
OCC1CO1 (stereo unspecified) |  |  | ready biodegradability: readily biodegradable
CC(=O)c1ccc(O)cc1 |  | 110 | ready biodegradability: readily biodegradable
CC(C)(C)C(C)(C)O | 131 | 17 | 
Cc1cc(C(=O)C(F)(F)F)ccc1Cl |  |  | ready biodegradability: not readily biodegradable
Clc1ccccc1-c1ccc(Cl)c(Cl)c1Cl |  |  | log10 Henry constant (atm·m³/mol): -3.85
Nc1cnn(-c2ccccc2)c(=O)c1Br |  | 224 | 
CCCOC(=O)CCCCC(=O)OCCC |  | -15.7 | 
C[n+]1ccc(-c2cc[n+](C)cc2)cc1 |  |  | log10 BCF: 0.28
BrC(Br)Br | 149 | 8 | log10 Henry constant (atm·m³/mol): -3.27; log10 Koc (L/kg): 2.06; log10 vapour pressure (mmHg): 0.732; ready biodegradability: not readily biodegradable; log10 BCF: 1.13; log10 biotransformation half-life (days): -0.7
CC(=O)OCC(=O)[C@@]12N=C(C)O[C@@H]1C[C@H]1[C@@H]3CCC4=CC(=O)C=C[C@]4(C)[C@H]3[C@@H](O)C[C@@]12C |  | 256 | 
FC(F)(F)C(Cl)CCl (stereo unspecified) | 76.9 |  | 
Nc1nc(=O)cc(Cl)[nH]1 |  | 262 | 
CSc1ccc(O)cc1 |  |  | ready biodegradability: not readily biodegradable
CCCCC(=O)OCC | 146 | -91.2 | log10 Koc (L/kg): 1.97; log10 vapour pressure (mmHg): 0.681
CC(=O)Nc1ccc(S(=O)(=O)O)cc1 |  |  | ready biodegradability: not readily biodegradable
CCCCCCCCCC(=O)N(CCO)CCO |  |  | ready biodegradability: readily biodegradable
CCN(CCO)CCO | 247 | -50 | ready biodegradability: not readily biodegradable
NC(=O)C#CC#CC#CCO |  | 140 | 
C=CCSCC=C | 139 | -85 | log10 vapour pressure (mmHg): 0.965
CC(C)CC(=O)Cl | 114 |  | 
c1cncnc1 | 124 | 22 | ready biodegradability: not readily biodegradable
COc1cc(O)c(C(C)=O)c(OC)c1 |  | 82 | 
CC/C=C/C=C/C=O |  | 84.5 | 

SMILES | boiling point [°C] | melting point [°C] | also measured
CC(=O)N(C)c1ccccc1C | 260 | 55.5 | 
CC(CCCl)OCCCl (stereo unspecified) | 195 |  | 
CCNC(=O)/C=C(C)/C=C/C=C(C)/C=C/c1c(C)cc(OC)c(C)c1C |  | 180 | 
CNCCCC12CCC(c3ccccc31)c1ccccc12 |  | 93 | 
Cc1c(Cl)cc(-c2ccc(O)nn2)cc1Cl |  | 252 | 
COc1ccc(C(=O)O)cc1 | 276 | 185 | ready biodegradability: readily biodegradable
C[C@@H](O)CC(=O)O |  | 47.5 | 
Fc1ccccc1-c1ccccc1 | 248 | 73.5 | 
CCC#CCCO | 163 |  | ready biodegradability: readily biodegradable
CC(=O)CCc1ccco1 | 203 |  | 
CCC(=O)c1ccc(O)cc1O |  | 99 | 
c1cc2c3c(cccc3c1)CC2 | 279 | 93.4 | log10 Henry constant (atm·m³/mol): -3.74; log10 Koa: 6.31; log10 Koc (L/kg): 3.59; log10 biodegradation half-life (days): 1.59; log10 vapour pressure (mmHg): -2.67; ready biodegradability: not readily biodegradable; log10 BCF: 2.88
O=C(O)[C@H](O)[C@@H](O)[C@H](O)[C@H](O)C(O)CO (stereo partly specified) |  | 146 | 
CN(CCCN1c2ccccc2CCc2ccccc21)CC(=O)c1ccc(Cl)cc1 |  | 105 | 
COc1ccc(I)cc1 | 238 | 53 | 
CCCCC(O)CCCC | 193 |  | 
CCO[Si](C)(C)C | 76 |  | log10 vapour pressure (mmHg): 2.06
BrCC(Br)(Br)Br |  | 0 | 
O=[N+]([O-])c1ccc(Nc2ccccc2)cc1 |  | 135 | 
CC(C)CC(C)C(C)C (stereo unspecified) | 131 | -128 | log10 biodegradation half-life (days): 0.903; log10 vapour pressure (mmHg): 1.07
CCC(O)CC | 116 |  | log10 vapour pressure (mmHg): 0.943
CC(C)CCC[C@@H](C)[C@H]1CC[C@H]2[C@@H]3CC=C4C[C@@H](OC(=O)Cc5ccc(N(CCCl)CCCl)cc5)CC[C@]4(C)[C@H]3CC[C@]12C |  | 90 | 
CCCC(C)(C)Br | 142 |  | 
NC(=O)c1cc(Cl)cc(Cl)c1N |  | 162 | 
O=S(=O)(O)c1ccc(O)c2ncccc12 |  | 322 | 

SMILES | boiling point [°C] | melting point [°C] | also measured
O=C(/C=C/c1cccc([N+](=O)[O-])c1)c1ccccc1 |  | 146 | 
COc1nc(C)nc(N)n1 |  | 260 | 
ClCC(Cl)(Cl)CCl | 165 |  | log10 vapour pressure (mmHg): 0.484; ready biodegradability: not readily biodegradable; log10 BCF: 1.57; log10 biotransformation half-life (days): -0.28
CCCCCCCCC(=O)OCCCC |  | -38 | log10 vapour pressure (mmHg): -1.67
CCCCCCCCCCCCCCCO |  | 45.5 | log10 vapour pressure (mmHg): -4.41; ready biodegradability: readily biodegradable
CC(C)COC(=O)CCCCC(=O)OCC(C)C | 279 | -20 | 
O=C1Cc2ccccc2O1 | 249 | 50 | 
CC(C(=O)O)c1cccc(C(=O)c2ccccc2)c1 (stereo unspecified) |  | 94 | 
CC(C)CC(=O)CC(C)C | 169 | -41.5 | log10 vapour pressure (mmHg): 0.217
COC(=O)c1cccc(C)c1O | 235 | 29 | 
C[C@@H]1C[C@@H]([C@H](O)CC2CC(=O)NC(=O)C2)C(=O)[C@@H](C)C1 |  | 119 | ready biodegradability: readily biodegradable; log10 BCF: 0.45
O=C1CCCCCN1 | 270 | 69.3 | log10 vapour pressure (mmHg): -2.8; ready biodegradability: readily biodegradable
N[C@@H](CC(=O)O)C(=O)O |  |  | ready biodegradability: readily biodegradable
CC(C)COC(=O)c1ccccc1C(=O)OCC(C)C | 296 |  | log10 Koc (L/kg): 3.14; ready biodegradability: not readily biodegradable
Fc1ccc(I)cc1 | 183 | -27 | 
C[N+](C)(C)CC(=O)O.[Cl-] |  | 242 | 
CC(Cc1ccc(C(C)(C)C)cc1)CN1CCCCC1 (stereo unspecified) |  |  | log10 vapour pressure (mmHg): -3.89
CCCC(C)C | 60.2 |  | log10 vapour pressure (mmHg): 2.32; ready biodegradability: readily biodegradable
CC1(C)C2CCC(C=O)C1C2 (stereo unspecified) | 220 |  | 
CCCCC(=O)CCCC | 188 | -3.8 | log10 vapour pressure (mmHg): -0.258
CCC/C=C/COC(C)=O | 166 |  | 
O=S(=O)(Cl)c1ccc(F)cc1 |  | 30 | 
O=c1[nH]c(=O)n([C@H]2CC[C@@H](CO)O2)cc1Br |  | 180 | 
CC(=O)c1ccco1 | 175 | 33 | 
